Reference: patent publication US7268209B2, “Peptides, derivates thereof, process for producing the same, novel strain producing the same, and antiviral agent comprising the same as active ingredient” (Toyo Suisan Kaisha, Ltd., priority 2001, dated 2007)
Where a SMILES comes first, the peptide text is derived from it. Bridges are numbered along the chain shown (N, C = ends). [ ]: non-standard residue; d: D form. The star is where a group is joined. ξ: configuration not given here. Decanoyl(3ξ-OH) = CCCCCCCC(O)CC(=O)*; X1 = CCCCCC/C=C/CC(O)CC(=O)*; Dab = NCC[CH](N)C(=O)O

Experiments:
[1] = test system: white spot syndrome virus (WSSV); assay: Antiviral effect against shrimp virus: injection of peptide-treated WSSV into shrimp; type: in vivo, Penaeus monodon (black tiger shrimp); settings: WSSV mixed with equal volume of 100 μg/mL peptide solution, 25° C. 1 hour, 0.1 mL intramuscular; observed 2 weeks; 10 shrimps per group
Description: Penaeus monodon (black tiger shrimp) weighing about 20 g were divided at random into groups each consisting of 10 shrimps and raised separately. A viral culture fluid prepared by diluting the white spot syndrome virus (WSSV LD50 value; 10^−3.6) 2000-fold with Hank's solution was mixed with an equal volume of a diluted solution (100 μg/mL) of the present peptides MA026 and BTI-MA026. After the mixture was incubated at 25° C. for 1 hour, the solution was intramuscularly injected at a dose of 0.1 mL into each shrimp, for viral inoculation. Whether the shrimps were actually inoculated with the virus or not was determined by observing them for 2 weeks after viral infection, and pathologically examining the ones that dies. The lesion tissues were examined to detect the viral gene by the PCR method. In the control group, Hank's solution only was used.

IHNV HV7601 strain = assay: Antiviral activity by plaque reduction, IHNV in CHSE-214 cells; type: cell-based, infectious hematopoietic necrosis virus (IHNV) in salmonid; settings: decrease in number of plaques, sample and virus pre-incubated at 10° C. for 2 hours
Description: (§1) Evaluation of the antiviral activity was conducted by the same method as described by Burke et al. (Appln. Env. Microbiol., 29, 872-876, 1980) except for the following partial modification. • (1) A sample to be measured for its antiviral activity is dissolved in dimethyl sulfoxide (DMSO) and then diluted with Hank's solution. • (2) 0.2 mL each of the diluted solution in (1) and a viral solution (IHNV HV7601 strain; 100 to 200 PFU/sample) diluted with Hank's solution are mixed and incubated at 10° C. for 2 hours. • (3) After the incubation in (2), the sample is inoculated for 30 minutes in CHSE-214 cells previously cultured for 24 hours in a 24-well cell culture plate. • (4) The sample is removed from each well, and an MEM medium containing. 0.8% methyl cellulose is overlaid on the cells and cultured for 7 days. • (5) The cells on the culture plate are fixed in 3.7% aqueous formalin, and after staining with 1% Crystal Violet, the number of plaques is counted. • (6) The antiviral activity is expressed in terms of the decrease in the number of plaques, relative to that decrease on wells to which the sample was not added. (Composition of the Medium) • a) 5.00 g polypeptone, 2.50 g meat extract, 2.50 g yeast extract, 0.20 g K2HPO4, 0.05 g MgSO4, 1.00 g glucose, 5.00 g NaCl, 1000 mL distilled water, pH 7.5, which were autoclaved at 121° C. for 15 minutes. • b) 15.00 g agar for microorganisms is added to a).
In the following examples, the evaluation of the antiviral activity was conducted in the method described above.
(§2) The antiviral activities of the present peptide MA026 against infectious hematopoietic necrosis virus (IHNV) in salmonid, rhabdovirus (EVA) in American eels and rhabdovirus (EVEX) in European eels were measured according to the method described in Example 1.

hepatitis C virus (HCV) = type: cell-based; settings: summary of Table 14
Description: Using the present peptides MA026, BTI-MA026 and R2MA026 as objects, the antiviral effect against hepatitis C virus (HCV) was examined. The experiments were conducted according to the method of Mizutani et al. (Biochem. Biophys. Res. Commun. 227, 822-826, 1996) under supervision of Dr. Kunitada Shimotohno at Institute for Viral Research, Kyoto University. • (1) 1×10^6 gene titer per 0.1 mL of HCV was infected with 1×10^6 MT-2C cells per 1 mL, and cultured at 32° C. for 4 days. • (2) The infected cells of (1) were divided (10^5 cells per well) into a 96-well plate and incubated at 32° C. for 1 day. • (3) Each of the present peptides was added to each well so that the concentration thereof became 1 μM and 5 μM, and incubated at 32° C. for further 2 days. • (4) RNA was extracted from the test cells, and after synthesized cDNA with a reverse transcriptase, PCR of first and second round were performed to detect the HCV gene. • (5) The inhibition effect against HCV was evaluated by comparing fluorescence intensities of the PCR products originated from the HCV infected cells to which the test sample was added, assuming the fluorescence intensity of the PCR product originated from the infected cells to which no test substance was added, to be 100%.

[2] = test system: rhabdovirus (EVA) in American eels; assay: Antiviral activity by plaque reduction, EVA; type: cell-based; settings: method of Example 1, decrease in number of plaques
Description: as §1, with “(Composition of the Medium) • a) 5.00 g polypeptone, 2.50 g meat extract, 2.50 g yeast extract, 0.20 g K2HPO4, 0.05 g MgSO4, 1.00 g glucose, 5.00 g NaCl, 1000 mL distilled water, pH 7.5, which were autoclaved at 121° C. for 15 minutes. • b) 15.00 g agar for microorganisms is added to a).” left out
as §2

[3] = test system: rhabdovirus (EVEX) in European eels; assay: Antiviral activity by plaque reduction, EVEX; type: cell-based; settings: method of Example 1, decrease in number of plaques
Description: as §1, with “(Composition of the Medium) • a) 5.00 g polypeptone, 2.50 g meat extract, 2.50 g yeast extract, 0.20 g K2HPO4, 0.05 g MgSO4, 1.00 g glucose, 5.00 g NaCl, 1000 mL distilled water, pH 7.5, which were autoclaved at 121° C. for 15 minutes. • b) 15.00 g agar for microorganisms is added to a).” left out
as §2

| SMILES | dead shrimp after inoculation with WSSV [1] | antiviral activity against IHNV (IHNV HV7601 strain) | proliferation of hepatitis C virus (hepatitis C virus (HCV)) | antiviral activity against EVA [2] | antiviral activity against EVEX [3] |
| --- | --- | --- | --- | --- | --- |
| CCCCCCCC(O)CC(=O)NC(CC(C)C)C(=O)NC(CCC(=O)O)C(=O)NC(CCN)C(=O)NC(C(=O)NC(CC(C)C)C(=O)NC(CCN)C(=O)NC1COC(=O)C(C(C)CC)NC(=O)C(CCN)NC(=O)C(CC(C)C)NC(=O)C(CCN)NC(=O)C(CC(C)C)NC(=O)C(CC(C)C)NC(=O)C(C(C)C)NC1=O)C(C)C (stereo not drawn) [BTI-MA026] ({Decanoyl(3ξ-OH)}-LE[Dab]VL[Dab]SVLL[Dab]L[Dab]I; ester 7-C; configuration not given here) | no dead shrimp | confirmed | inhibited |  |  |
| CCCCCCCC(O)CC(=O)NC(CC(C)C)C(=O)NC(CCC(=O)O)C(=O)NC(CCN)C(=O)NC(C(=O)NC(CC(C)C)C(=O)NC(CCN)C(=O)NC(CO)C(=O)NC(C(=O)NC(CC(C)C)C(=O)NC(CC(C)C)C(=O)NC(CCN)C(=O)NC(CC(C)C)C(=O)NC(CCN)C(=O)NC(C(=O)O)C(C)CC)C(C)C)C(C)C (stereo not drawn) [BTI-base MA026] ({Decanoyl(3ξ-OH)}-LE[Dab]VL[Dab]SVLL[Dab]L[Dab]I-OH; configuration not given here) |  | confirmed |  |  |  |
| CCCCCCCC(O)CC(=O)NC(CC(C)C)C(=O)NC(CCC(=O)O)C(=O)NC(CCC(N)=O)C(=O)NC(C(=O)NC(CC(C)C)C(=O)NC(CCC(N)=O)C(=O)NC1COC(=O)C(C(C)CC)NC(=O)C(CCC(N)=O)NC(=O)C(CC(C)C)NC(=O)C(CCC(N)=O)NC(=O)C(CC(C)C)NC(=O)C(CC(C)C)NC(=O)C(C(C)C)NC1=O)C(C)C (stereo not drawn) [MA026] ({Decanoyl(3ξ-OH)}-LEQVLQSVLLQLQI; ester 7-C; configuration not given here) | no dead shrimp | high antiviral activity | inhibited | high antiviral activity | high antiviral activity |
| CCCCCCCC(O)CC(=O)NC(CC(C)C)C(=O)NC(CCC(=O)O)C(=O)NC(CCC(N)=O)C(=O)NC(C(=O)NC(CC(C)C)C(=O)NC(CCC(N)=O)C(=O)NC1COC(=O)C(CC(C)C)NC(=O)C(CCC(N)=O)NC(=O)C(CC(C)C)NC(=O)C(CCC(N)=O)NC(=O)C(CC(C)C)NC(=O)C(C(C)C)NC(=O)C(C(C)C)NC1=O)C(C)C (stereo not drawn) [R1MA026] ({Decanoyl(3ξ-OH)}-LEQVLQSVVLQLQL; ester 7-C; configuration not given here) |  | confirmed |  |  |  |
| CCCCCC/C=C/CC(O)CC(=O)NC(CC(C)C)C(=O)NC(CCC(=O)O)C(=O)NC(CCC(N)=O)C(=O)NC(C(=O)NC(CC(C)C)C(=O)NC(CCC(N)=O)C(=O)NC1COC(=O)C(C(C)CC)NC(=O)C(CCC(N)=O)NC(=O)C(CC(C)C)NC(=O)C(CCC(N)=O)NC(=O)C(CC(C)C)NC(=O)C(CC(C)C)NC(=O)C(C(C)C)NC1=O)C(C)C (stereo not drawn) [R2MA026] (X1-LEQVLQSVLLQLQI; ester 7-C; configuration not given here) |  | confirmed | inhibited |  |  |
